Tests used:
SHP2 = SHP2 (Homo sapiens (Human), UniProt Q06124); assay: SHP2 allosteric inhibitory enzyme activity assay (DiFMUP fluorescence); type: biochemical; conditions: read-out: SHP2 enzymatic activity IC50
Text: Example A: SHP2 Allosteric Inhibitory Enzyme Activity Assay
SHP2 is allosterically activated by binding of a bis-tyrosyl-phosphorylated peptide to its Src homology 2 (SH2) domain. This later activation step results in the release of the autoinhibitory interface of SHP2, which in turn activates the SHP2 protein tyrosine phosphatase (PTP) and is available for substrate recognition and reaction catalysis. The catalytic activity of SHP2 was monitored using the surrogate DiFMUP in a rapid fluorescence assay format.
experiment procedure: • (1) Compound preparation: • The compounds of the present invention (10 mM stock solution) were diluted to appropriate times with 100% DMSO, and the final test concentrations of the compounds of the present invention were 10 µM, 3.3333 µM, 1.1111 µM, 0.3704 µM, 0.1235 µM, 0.0412 µM, 0.0137 µM, 0.0046 µM, 0.0015 µM, 0.00 µM; • (2) Prepare the enzyme reaction working solution: • Perform SHP2 enzymatic assays in 96-well black polystyrene plates (flat bottom, low flange, non-binding surface) (Perki Elmer, Cat#6005270) at room temperature using a final reaction volume of 50 µL and the following assay buffer conditions: 60 mM HEPES, 75 mM NaCl, 75 mM KCl, 0.05% BRIJ-35, 1 mM EDTA, 5 mM DTT. • (3) Enzyme-catalyzed reaction and data monitoring: • Add the compound of the present invention to the corresponding 96-well plate, and set the blank test well without compound and enzyme only with buffer. Thaw SHP2 Activating Peptide (IRS1_pY1172(dPEG8)pY1222) on ice, add 25 µM to each well, then add 0.2 ng of SHP2 protein sample to the corresponding well plate and incubate at room temperature for 1 hour. The surrogate substrate DiFMUP (Invitrogen, Cat #D6567) was added to the reaction and allowed to react for 1 hour at room temperature. Fluorescence signals were monitored using a microplate reader (Envision, Perki Elmer) using excitation and emission wavelengths of 340 nm and […], respectively. • (4) Data analysis: • Calculation Formula: • [formula]
Among them: Conversion_sample is the conversion rate reading of the sample; Conversion_min is the average value of blank control wells, representing the conversion rate readings of wells without enzymatic activity; Conversion_max is the mean ratio of positive control wells, representing the conversion rate readings of wells without compound inhibition. The log(inhibitor) vs. response-Variable slope of the analysis software GraphPad Prism was used to fit the dose-response curve, and the IC50 value of the compound for the enzymatic activity was calculated.

leukemia cells MV-4-11 = assay: Cell proliferation assay, CELL TITER-GLO (CTG) luminescence, MV-4-11; type: cell-based
Protocol: (§1) Example B: Cell Proliferation Assay
(§2) The effects of the compounds of the invention on the proliferation of leukemia cells MV-4-11 and lung cancer cells NCI-H358 were evaluated using in vitro cell assays. The detection method used in the experiment is the CELL TITER-GLO (CTG) luminescence method, which can detect the number of viable cells by quantifying ATP. Because ATP participates in a variety of enzymatic reactions in vivo, it is an indicator of the metabolism of living cells, and its content directly reflects the number and state of cells. During the experiment, CellTiter-Glo™ reagent was added to the cell culture medium to measure the luminescence value. The value is proportional to the amount of ATP, and ATP is positively related to the number of living cells, so the cell viability can be examined by detecting the ATP content.
(§3) experiment procedure: • (1) Cell plating: • Take a bottle of MV-4-11 cells in logarithmic growth phase, resuspend the cells by centrifugation and count them. After adjusting the cell density, they were seeded into a 96-well plate (Corning #3917). After culturing in a 5% CO2 incubator for 24 hrs, the compound of the present invention was added for treatment; • Take a bottle of NCI-H358 cells in logarithmic growth phase, digest and resuspend the cells, count them, adjust the cell density, and inoculate them into a 96-well transparent ultra-low adsorption cell culture plate (Corning #3474), inoculate 2000 cells per well. The plate was placed in an incubator at 37° C. and 5% CO2 for 24 hrs, and then the compound of the present invention was added for treatment; • (2) Cell compound treatment: • An appropriate amount of the compound of the present invention was prepared for cell treatment. The final concentration of the compound from high to low was 1000 nM, 333.3 nM, 111.1 nM, 37.04 nM, 12.35 nM, 4.115 nM, 1.372 nM, 0.4572 nM, 0.1524 nM, and 0 nM. The plate was placed in a 37° C., 5% CO2 incubator for 120 hrs. Only adding medium without cell wells was set as the blank group; the group with compound concentration of 0 nM was the zero-adjusting group. • (3) CTG detection: • After NCI-H358 cells were cultured for 96 hrs, 50 µL of CellTiter-Glo® Luminescent Cell Viability Assay solution was added to each well, shaken gently for 2 mins, and incubated at room temperature for 10 mins. The cell reaction system was transferred to a white-bottomed 96-well plate. Read the detection value of each well on a multi-function microplate reader. • After MV-4-11 cells were cultured for 120 hrs, 50 µL of CellTiter-Glo® Luminescent Cell Viability Assay solution was added to each well, gently shaken for 2 mins, and incubated at room temperature for 10 mins. Check the value. • (4) Data analysis: • Calculate the inhibition rate from the luminescence value readings, • [formula]
(§4) The log(inhibitor) vs. response-Variable slope of GraphPad Prism was fitted to dose-response curves and IC50s of compounds that inhibited cell proliferation were calculated.

[1] = tested on: lung cancer cells NCI-H358; assay: Cell proliferation assay, CELL TITER-GLO (CTG) luminescence, NCI-H358; type: cell-based; conditions: cultured for 96 hrs
Protocol: as §1, §2, §3, §4

[2] = Homo sapiens, MV4-11, cultured for 120 hrs
[3] = Homo sapiens, NCI-H358, ultra-low adsorption plate

Chain of SHP2 (Q06124 whole entry): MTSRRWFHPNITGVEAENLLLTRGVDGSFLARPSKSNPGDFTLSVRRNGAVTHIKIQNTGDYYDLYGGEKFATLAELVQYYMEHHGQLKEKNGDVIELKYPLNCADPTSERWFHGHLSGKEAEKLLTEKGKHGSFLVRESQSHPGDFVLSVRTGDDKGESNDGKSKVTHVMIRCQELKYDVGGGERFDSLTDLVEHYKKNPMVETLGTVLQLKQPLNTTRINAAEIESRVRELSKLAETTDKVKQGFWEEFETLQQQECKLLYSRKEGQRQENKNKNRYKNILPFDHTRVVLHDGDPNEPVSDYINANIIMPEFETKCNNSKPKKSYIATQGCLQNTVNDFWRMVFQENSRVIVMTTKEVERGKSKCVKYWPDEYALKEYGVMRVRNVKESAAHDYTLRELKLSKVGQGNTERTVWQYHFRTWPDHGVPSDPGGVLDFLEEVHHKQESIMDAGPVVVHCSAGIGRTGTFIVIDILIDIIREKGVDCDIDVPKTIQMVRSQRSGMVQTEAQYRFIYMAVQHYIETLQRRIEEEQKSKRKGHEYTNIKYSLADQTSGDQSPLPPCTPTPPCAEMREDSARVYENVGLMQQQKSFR

Row | Structure (SMILES) | IC50 (SHP2) [nM] | IC50 (leukemia cells MV-4-11; [2]) [nM] | IC50 [1, 3] [nM] | IC50 (leukemia cells MV-4-11; cultured for 120 hrs) [nM] | IC50 ([1]; ultra-low adsorption plate) [nM]
1 | COc1cccc(OCC#Cc2cnc(N3CCC4(CC3)Cc3ccccc3[C@H]4N)c(CO)n2)c1 [Compound A02, (S)-(3-(1-amino-1,3-dihydrospiro [indene-2,4′-piperidine]-1′-yl)-6-(3-(3-methoxyphenoxy)prop-1-yn-1-yl)pyrazin-2-yl) methanol] | 0.7 | 5 | 7.8 |  | 
2 | COc1cccc(SCC#Cc2cnc(N3CCC4(CC3)Cc3ccccc3[C@H]4N)c(CO)n2)c1 [Compound A06, (S)-(3-(1-amino-1,3-dihydrospiro[indene-2,4′-piperidin]-1′-yl)-6-(3-((3-methoxyphenyl)thio)prop-1-yn-1-yl)pyrazin-2-yl)methanol] | 6.8 | 8 | 11 |  | 
3 | N[C@@H]1c2ccccc2CC12CCN(c1ncc(C#CCOc3ccc4[nH]ncc4c3)nc1CO)CC2 [Compound A67, (S)-(6-(3-((1H-Indazol-5-yl)oxy)prop-1-yn-1-yl)-3-(1-amino-1,3-dihydrospiro[Indene-2,4′-piperidin]-1 ‘-yl)pyrazin-2-yl)methanol] |  | 1 | 0.9 |  | 
4 | COc1ccc(OCC#Cc2cnc(N3CCC4(CC3)Cc3ccccc3[C@H]4N)c(CO)n2)cc1 [Compound A09, (S)-(3-(1-amino-1,3-dihydrospiro [indene-2,4′-piperidine]-1′-yl)-6-(3-(4-methoxyphenoxy)prop-1-yn-1-yl)pyrazin-2-yl) methanol] | 0.9 | 2.6 | 4.9 |  | 
5 | Cn1nccc1Nc1ccc(OCC#Cc2cnc(N3CCC4(CC3)Cc3ccccc3[C@H]4N)c(CO)n2)cc1 [Compound A77] | 5.9 |  |  | 11 | 36
6 | CC(=O)Nc1ccc(OCC#Cc2cnc(N3CCC4(CC3)Cc3ccccc3[C@H]4N)c(CO)n2)cc1 [Compound A08, (S)-N-(4-((3-(5-(1-amino-1,3-dihydrospiro [indene-2,4′-piperidine]-1′-yl) -6-(hydroxymethyl)pyrazin-2-yl)prop-2-yn-1-yl)oxy)phenyl) acetamide] | 3.3 | 2.1 | 3.8 |  | 
7 | CNc1ncc(OCC#Cc2cnc(N3CCC4(CC3)Cc3ccccc3[C@H]4N)c(CO)n2)cn1 [Compound A68, (S)-(3-(1-amino-1,3-dihydrospiro[indene-2,4′-piperidin]-1′-yl)-6-(3-( (2-(methylAmino)pyrimidin-5-yl)oxy)prop-1-yn-1-yl)pyrazin-2-yl) methanol] | 2.1 | 8.6 | 26 |  | 
8 | CN(C)C(=O)c1cccc(OCC#Cc2cnc(N3CCC4(CC3)Cc3ccccc3[C@H]4N)c(CO)n2)c1 [Compound A36, (S)-3-((3-(5-(1-amino-1,3-dihydrospiro[indene-2,4′-piperidin]-1′-yl)-6-(hydroxymethyl)pyrazin-2-yl)prop-2-yn-1-yl)oxy)-N,N-dimethylb enzamide] |  | 14 | 48 |  | 
9 | CC(=O)c1cccc(OCC#Cc2cnc(N3CCC4(CC3)Cc3ccccc3[C@H]4N)c(CO)n2)c1 [Compound A16, (S)-1-(3-((3-(5-(1-amino-1,3-dihydrospiro[indene-2,4′-piperidin]-1′-yl)-6-(hydroxymethyl)pyrazin-2-yl)prop-2-yn-1-yl)oxy)phenyl)etha n-1-one] |  | 6.9 | 11 |  | 
10 | CNC(=O)c1cccc(OCC#Cc2cnc(N3CCC4(CC3)Cc3ccccc3[C@H]4N)c(CO)n2)c1 [Compound A35, (S)-3-((3-(5-(1-amino-1,3-dihydrospiro[indene-2,4′-piperidine]-1′-yl)-6-(hydroxymethyl)pyrazin-2-yl)prop-2-yn-1-yl)oxy)-N-methylben zamide] |  | 3 | 3.6 |  | 
11 | COc1ccccc1OCC#Cc1cnc(N2CCC3(CC2)Cc2ccccc2[C@H]3N)c(CO)n1 [Compound A10, (S)-(3-(1-amino-1,3-dihydrospiro[indene-2,4′-piperidin]-1′-yl)-6-(3-(2-methoxyphenoxy)prop-1-yn-1-yl)pyrazin-2-yl)methanol] |  | 4.4 | 4.3 |  | 
12 | NC(=O)c1nc(C#CCOc2ccc3c(c2)C(=O)NC3)cnc1N1CCC2(CC1)Cc1ccccc1[C@H]2N [Compound A42] | 15 |  |  |  | 
13 | N[C@@H]1c2ccccc2CC12CCN(c1ncc(C#CCNc3ccc4c(c3)NC(=O)CC4)nc1CO)CC2 [Compound A64, (S)-7-((3-(5-(1-amino-1,3-dihydrospiro[indene-2,4′-piperidin]-1′-yl)-6-(hydroxymethyl)pyrazin-2-yl)prop-2-yn-1-yl)amino)-3,4-dihydroq uinolin-2(1H)-one] |  | 0.9 | 2.1 |  | 
14 | N[C@@H]1c2ccccc2CC12CCN(c1ncc(C#CCOc3ccc(C(F)(F)F)nc3)nc1CO)CC2 [Compound A70, (S)-(3-(1-amino-1,3-dihydrospiro[indene-2,4′-piperidin]-1′-yl)-6-(3-( (6-(trifluoromethyl)pyridin-3-yl)oxy)prop-1-yn-1-yl)pyrazin-2-yl)m ethanol] |  | 6.2 | 17 |  | 
15 | Nc1nc2cc(OCC#Cc3cnc(N4CCC5(CC4)Cc4ccccc4[C@H]5N)c(CO)n3)ccc2o1 [Compound A69, (S)-(3-(1-amino-1,3-dihydrospiro[inden-2,4′-piperidin]-1′-yl)-6-(3-((2-Aminobenzo[d]oxazol-5-yl)oxy)prop-1-yn-1-yl)pyrazin-2-yl)met hanol] |  | 0.7 | 2.1 |  | 
16 | CNC(=O)c1ccc(OCC#Cc2cnc(N3CCC4(CC3)Cc3ccccc3[C@H]4N)c(CO)n2)cc1 [Compound A72, (S)-4-((3-(5-(1-amino-1,3-dihydrospiro[indene-2,4′-piperidin]-1′-yl)-6-(hydroxymethyl)pyrazin-2-yl)prop-2-yn-1-yl)oxy)-N-methylbenzamide] |  | 1.8 | 3.5 |  | 
17 | N[C@@H]1c2ccccc2CC12CCN(c1ncc(C#CCOc3cccc(Cl)c3F)nc1CO)CC2 [Compound A05, (S)-(3-(1-amino-1,3-dihydrospiro[indene-2,4′-piperidin]-1′-yl)-6-(3-(3-chloro-2-fluorophenoxy)prop-1-yn-1-yl)pyrazin-2-yl)methanol] |  | 14 | 15 |  | 
18 | CC(=O)Nc1cccc(OCC#Cc2cnc(N3CCC4(CC3)Cc3ccccc3[C@H]4N)n(C)c2=O)c1 [Compound A34, (S)-N-(3-((3-(2-(1-amino-1,3-dihydrospiro[indene-2,4′-piperidin]-1′-yl)-1-methyl-6-oxo-1,6-dihydropyrimidin-5-yl)prop-2-yn-1-yl)oxy)phenyl)acetamide] |  | 25 | 51 |  | 
